{"source": "patent US12059413B2", "about": "“Methods of inhibiting viruses using compositions targeting TSG101-ubiquitin interaction” (The Research Foundation for the State University of New York, priority 2016, dated 2024)", "key": {"Tsg101": {"target": "T1, Tsg101 (Homo sapiens, UniProt Q99816)", "T1 sequence (Q99816 2-145 limits assumed)": "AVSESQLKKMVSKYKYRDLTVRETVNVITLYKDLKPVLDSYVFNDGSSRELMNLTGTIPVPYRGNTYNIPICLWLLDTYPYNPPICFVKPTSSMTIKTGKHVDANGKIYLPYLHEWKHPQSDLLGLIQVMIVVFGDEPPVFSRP", "assay": "NWU screening / in vitro binding assay", "from_the_text": "Pantoprazole, Lansoprazole/Dexlansoprazole (dexlansoprazole is the active enantiomer of the racemic lansoprazole), and Rabeprazole were in the NWU screen but were not considered hits."}, "Tsg101 UEV domain": {"target": "T2, Tsg101 UEV domain (Homo sapiens, UniProt Q99816)", "T2 construct": "Tsg101 UEV domain (residues 2-145) was encoded in a pET-28b vector; His6-TEV site (N, cleaved yes); made in house; host or cells: E. coli Rosetta 2 (DE3) pLysS", "T2 sequence (Q99816 2-145)": "T1 sequence (Q99816 2-145 limits assumed)", "assay": "NMR / LC-MS binding of compound to Tsg101 UEV domain", "description": "N16 (20 mM solution, DMSO) was added to Tsg101 UEV domain in a 10:1 ratio (N16 excess).\nFor binding studies using NMR spectroscopy, the following complexes were made: Tsg101 UEV-N16, UEV-PTAP, UEV-Ub, UEV-N16-PTAP, and UEV-N16-Ub, all in Tsg101 NMR buffer: 20 mM potassium phosphate, 50 mM NaCl, pH 5.8, with UEV concentration of 200 μM."}, "[1]": {"assay": "Conversion of prazoles to sulfenamide / half-life", "assay_type": "physicochemical", "from_the_text": "To measure sulfenamide formation: Dissolve each compound in water/buffer and measure the formation of colored compounds by UV-visible absorption, since the initial compound is colorless and the final compound (the sulfenamide dimer) is colored."}, "proteasome": {"target": "proteasome (Homo sapiens, UniProt P20618+P28074)", "settings": "Gelman et al.; cited from earlier work"}, "293T cells": {"test_system": "293T cells", "assay": "Metabolic activity, WST-1 assay, 293T cells", "assay_type": "cell-based", "settings": "metabolic measurements, WST-1 reagent", "description": "FIG. 20A-C. N16 inhibition is virus-specific. A) N16 IC50 for Hela and 293T cells. […] Values were calculated by measuring metabolic activity (WST-1 Assay, Roche Applied Science) after cells were grown for 24 hr in N16. Data points represent the mean of 2 assays, 3 time points each for each cell line. […] Values in the absence or presence of N16 (50 uM) were 12% and 13%, respectively). C) N16 effect on EGF-stimulated EFGR degradation. Cells maintained for 24 hr in media containing DMSO alone or DMSO and N16 were stimulated with EGF ligand for a 90 min period and then assessed for EGFR steady-state level by Western analysis. EGFR levels for unstimulated and stimulated sample pairs are shown. A) n=2; B) n=2; C) n=2.\nFIG. 27A-C. Effect of N-Acetyl Cysteine (NAC) on N16-mediated inhibition of VLP production and intracellular Gag accumulation. […] A concentration of 3 mM NAC was therefore used to test the effect of the antioxidative reagent on the N16 inhibitory effect. N16 (0, 12, 25, 50, 75, and 100 uM) was added 8.5 hr prior to transfection with pNL4-3ΔEnv. Cells were harvested 16 hr later. […] C) Quantitative analysis. n=2.\nCells were grown in 96-well trays for 24 hr with increasing levels of drug, metabolic activity was measured using WST-1colorimetric assay (Roche), and IC50 values were calculated (Prism 6, Graph Pad Software Inc.)."}}}
{"smiles": "Cc1c(OCC(F)(F)F)ccnc1C[S+]([O-])c1nc2ccccc2[nH]1", "note": "(racemic) [Lansoprazole]", "values": [{"measurement": "binding in the NWU screening assay", "setting": "Tsg101", "result": "bound weakly"}, {"measurement": "residue bound in Tsg101 UEV (NMR and fluorescence perturbances)", "setting": "Tsg101 UEV domain", "result": "bind to residue C73"}, {"measurement": "slowness of sulfenamide conversion relative to Rabeprazole", "setting": "[1]", "result": "~2", "unit": "×"}]}
{"smiles": "CC(C)C[C@H](NC(=O)[C@H](Cc1ccccc1)NC(=O)c1cnccn1)B(O)O", "note": "[bortezomib]", "values": [{"measurement": "concentration giving proteasome inhibition, previous studies", "setting": "proteasome", "result": "≥ 5", "unit": "nM"}]}
{"smiles": "CC(=O)N[C@@H](CS)C(=O)O", "note": "[NAC, N-Acetyl Cysteine]", "values": [{"measurement": "concentration up to which 293T cells were robust", "setting": "293T cells", "result": "at least 4 mM"}]}
